Test results: patent US5440016A, “Peptides of the formula (KFmoc) ZZZ and their uses” (priority 1993, dated 1995)
Square brackets hold non-standard residues; d marks the D form. Peptide text beside a SMILES is read from it.

Columns and labels:
[1] = test system: Human red blood cells (RBCs); assay: Hemolytic activity; assay type: cell-based; conditions: at 100 μg/ml, Tables 22-23
[2] = test system: Escherichia coli ATCC 25922; conditions: Tables 22-23
Description: (§1) Escherichia coli ATCC 25922 and P. aeruginosa ATCC 27853 were used as Gram-negative (-) and Staphylococcus aureus ATCC 29213 as Gram-positive (+) bacteria. Bacteria were grown overnight at 37° C. in Mueller-Hinton (MH) broth. This culture was reinoculated and incubated at 37° C. to reach the exponential phase of bacteria growth, i.e., a final bacterial suspension containing 10^5 to 5×10^5 colony-forming units (CFU)/ml. The concentration of cells was established by plating 100 μl of different dilutions of the culture solution (e.g., 10^-2, 10^-3 and 10^-4) onto solid agar plates.
(§2) Following an overnight incubation at 37° C., the CFU thus formed were counted on each agar plate. In 96-well tissue culture plates, as control blanks, eight wells per plate contained only medium, while as a positive growth control, eight other wells contained medium plus cells.
(§3) The plates were incubated overnight at 37° C., and the optical density (OD) determined at 620 nm after different times of incubation.

[3] = test system: Staphylococcus aureus ATCC 29213; conditions: Tables 22-23
Description: as §1, §2, §3

[4] = test system: Streptococcus sanguis ATCC 10556; conditions: Tables 22-23
[5] = test system: Candida albicans ATCC 10231; conditions: Tables 22-23
P. aeruginosa ATCC 27853 = assay: Antimicrobial assay, P. aeruginosa; conditions: Tables 22-23
Description: as §1, §2, §3

[6] = target: T1, trypsin (from bovine pancreas) (Bos taurus, UniProt P00760); assay: Trypsin inhibition assay; assay type: biochemical; conditions: trypsin concentration of 193 nM; substrate N-alpha-benzoyl-DL-arginine-p-nitroanilide; read-out: IC50, trypsin inhibiting activity
T1 construct: trypsin (from bovine pancreas, 8,600 units/mg solid); from tissue; host or cells: bovine pancreas
T1 sequence (P00760 24-246): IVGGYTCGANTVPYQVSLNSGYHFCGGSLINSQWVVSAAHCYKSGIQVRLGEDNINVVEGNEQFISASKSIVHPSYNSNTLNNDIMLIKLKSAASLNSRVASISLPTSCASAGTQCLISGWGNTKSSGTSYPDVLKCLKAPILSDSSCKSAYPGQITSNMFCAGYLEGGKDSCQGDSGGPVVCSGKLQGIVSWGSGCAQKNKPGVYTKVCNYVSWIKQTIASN
Description: The assay was performed in a 96-well assay plate, 15 μl trypsin (from bovine pancreas, 8,600 units/mg solid) solution (0.05 mg/ml 0.02 M HCl), 50 μl peptide solution (1 to 3 mM in water), and 100 μl 0.1 M Tris-buffer containing 25 mM CaCl2 (pH 7.8) were mixed in the wells of the assay plate. After incubation for 30 minutes, 100 μl substrate solution (N^α -benzoyl-DL-arginine-p-nitroanilide, 2.3 mM in water) was added. After 30 minutes, absorbances were read at 405 nm using a Titertek multichannel photometer, and expressed as a percentage of the control (well without peptide). The values obtained with serial dilutions of the peptide solutions were used to determine the IC50 values (concentration neccessary for 50% inhibition).

Compound	% hemolysis at 100 μg/ml [1]	IC50 (μg/ml) against E. coli [2]	IC50 (μg/ml) against S. aureus [3]	IC50 (μg/ml) against S. sanguis [4]	IC50 (μg/ml) against C. albicans [5]	IC50 (μg/ml) against P. aeruginosa (P. aeruginosa ATCC 27853)	IC50 [6]
CC(=O)N[C@H](CCCNC(=N)N)C(=O)N[C@H](CCCNC(=N)N)C(=O)N[C@H](Cc1c[nH]c2ccccc12)C(=O)N[C@H](Cc1c[nH]c2ccccc12)C(=O)N[C@H](CS)C(=O)N[C@@H](C(N)=O)C(C)C [Ac-rrwwcv-NH2] (Ac-[dR][dR][dW][dW][dC][dV]-NH2)	10.0%	9 to 10 µg/mL	16 to 19 µg/mL	7 to 8 µg/mL	107 to 119 µg/mL	58 to 88 µg/mL	–
CC(=O)N[C@H](CCCNC(=N)N)C(=O)N[C@H](Cc1ccc(O)cc1)C(=O)N[C@H](CCCNC(=N)N)C(=O)N1CCC[C@@H]1C(=O)N[C@H](Cc1c[nH]c2ccccc12)C(=O)N[C@H](CS)C(N)=O [Ac-ryrpwc-NH2] (Ac-[dR][dY][dR][dP][dW][dC]-NH2)	–	–	–	–	–	–	135 µM
CC(=O)N[C@H](CCCNC(=N)N)C(=O)N[C@H](Cc1ccc(O)cc1)C(=O)N[C@H](CCCNC(=N)N)C(=O)N1CCC[C@@H]1C(=O)N[C@H](Cc1c[nH]c2ccccc12)C(=O)N1CCC[C@@H]1C(N)=O [Ac-ryrpwp-NH2] (Ac-[dR][dY][dR][dP][dW][dP]-NH2)	–	–	–	–	–	–	62 µM
CC(=O)N[C@H](CCCNC(=N)N)C(=O)N[C@H](Cc1ccc(O)cc1)C(=O)N[C@H](CCCNC(=N)N)C(=O)N1CCC[C@@H]1C(=O)N[C@H](Cc1c[nH]c2ccccc12)C(=O)N[C@@H](C(N)=O)[C@H](C)O [Ac-ryrpwt-NH2] (Ac-[dR][dY][dR][dP][dW][dT]-NH2)	–	–	–	–	–	–	142 µM
CC(=O)N[C@H](CCCNC(=N)N)C(=O)N[C@H](Cc1ccc(O)cc1)C(=O)N[C@H](CCCNC(=N)N)C(=O)N1CCC[C@@H]1C(=O)N[C@H](Cc1c[nH]c2ccccc12)C(=O)N[C@@H](C(N)=O)C(C)C [Ac-ryrpwv-NH2] (Ac-[dR][dY][dR][dP][dW][dV]-NH2)	–	–	–	–	–	–	131 µM
CC(=O)N[C@H](CCCNC(=N)N)C(=O)N[C@H](Cc1ccc(O)cc1)C(=O)N[C@H](CCCNC(=N)N)C(=O)N1CCC[C@@H]1C(=O)N[C@H](Cc1c[nH]c2ccccc12)C(=O)N[C@H](Cc1c[nH]c2ccccc12)C(N)=O [Ac-ryrpww-NH2] (Ac-[dR][dY][dR][dP][dW][dW]-NH2)	–	–	–	–	–	–	125 µM
Ac-RRWWCA-NH2 [Ac-RRWWCA-NH2]	2.2%	21 to 23 µg/mL	35 to 40 µg/mL	60 to 70 µg/mL	193 to 210 µg/mL	97 to 98 µg/mL	–
Ac-RRWWCD-NH2 [Ac-RRWWCD-NH2]	0.3%	> 125 µg/mL	> 125 µg/mL	> 500 µg/mL	> 1000 µg/mL	> 500 µg/mL	–
Ac-RRWWCE-NH2 [Ac-RRWWCE-NH2]	0.0%	> 125 µg/mL	> 125 µg/mL	> 500 µg/mL	842 to 874 µg/mL	149 µg/mL	–
Ac-RRWWCF-NH2 [Ac-RRWWCF-NH2]	3.3%	20 to 21 µg/mL	10 to 14 µg/mL	14 to 22 µg/mL	70 to 97 µg/mL	42 to 45 µg/mL	–
Ac-RRWWCG-NH2 [Ac-RRWWCG-NH2]	1.9%	22 to 23 µg/mL	46 to 49 µg/mL	47 to 66 µg/mL	215 to 218 µg/mL	200 µg/mL	–
Ac-RRWWCH-NH2 [Ac-RRWWCH-NH2]	0.0%	20 to 28 µg/mL	26 to 28 µg/mL	53 to 62 µg/mL	69 to 107 µg/mL	59 to 65 µg/mL	–
